Data as given in ChEMBL document CHEMBL3091293, “The synthesis and biodistribution of [(11)C]metformin as a PET probe to study hepatobiliary transport mediated by the multi-drug and toxin extrusion transporter 1 (MATE1) in vivo” (Bioorg Med Chem, 2013).

How the values were obtained:
Type in all cases: ADME, organism-based
[1] = Drug uptake in urinary bladder of ddY mouse at 127 +/- 35 MBq/kg, iv measured up to 4.5 mins by microPET image analysis in presence of MATE1 inhibitor pyrimethamine; conditions: in vivo, 0.075 h
[2] = system: Kidney; assay: Drug uptake in kidney of ddY mouse at 127 +/- 35 MBq/kg, iv measured up to 4.5 mins by microPET image analysis in presence of MATE1 inhibitor pyrimethamine; conditions: in vivo, 0.075 h
[3] = system: Mus musculus; assay: Biodistribution in remaining body parts of ddY mouse at 5.6 +/- 2.1 MBq, iv measured per gram of tissue at 90 mins by gamma-ray counting analysis; conditions: in vivo, 1.5 h
[4] = system: Mus musculus; assay: Biodistribution in remaining body parts of ddY mouse at 5.6 +/- 2.1 MBq, iv measured per gram of tissue at 60 mins by gamma-ray counting analysis; conditions: in vivo, 1 h
[5] = system: Mus musculus; assay: Biodistribution in remaining body parts of ddY mouse at 5.6 +/- 2.1 MBq, iv measured per gram of tissue at 45 mins by gamma-ray counting analysis; conditions: in vivo, 0.75 h
[6] = system: Mus musculus; assay: Biodistribution in remaining body parts of ddY mouse at 5.6 +/- 2.1 MBq, iv measured per gram of tissue at 30 mins by gamma-ray counting analysis; conditions: in vivo, 0.5 h
[7] = system: Mus musculus; assay: Biodistribution in remaining body parts of ddY mouse at 5.6 +/- 2.1 MBq, iv measured per gram of tissue at 15 mins by gamma-ray counting analysis; conditions: in vivo, 0.25 h
[8] = system: Mus musculus; assay: Biodistribution in remaining body parts of ddY mouse at 14.6 +/- 2.1 MBq, iv measured per gram of tissue at 27.5 mins by PET image analysis; conditions: in vivo
[9] = system: Kidney; assay: Biodistribution in kidney of ddY mouse at 14.6 +/- 2.1 MBq, iv measured per gram of tissue at 27.5 mins by PET image analysis; conditions: in vivo
[10] = system: Liver; assay: Biodistribution in liver of ddY mouse at 14.6 +/- 2.1 MBq, iv measured per gram of tissue at 27.5 mins by PET image analysis; conditions: in vivo
[11] = system: Mus musculus; assay: Biodistribution in remaining body parts of ddY mouse at 14.6 +/- 2.1 MBq, iv measured per gram of tissue at 14 mins by PET image analysis; conditions: in vivo
[12] = system: Liver; assay: Biodistribution in liver of ddY mouse at 14.6 +/- 2.1 MBq, iv measured per gram of tissue at 5 mins by PET image analysis; conditions: in vivo
[13] = system: Mus musculus; assay: Biodistribution in urinary bladder/urine of ddY mouse at 5.6 +/- 2.1 MBq, iv measured per gram of tissue at 90 mins by gamma-ray counting analysis; conditions: in vivo, 1.5 h
[14] = system: Pancreas; assay: Biodistribution in pancreas of ddY mouse at 5.6 +/- 2.1 MBq, iv measured per gram of tissue at 90 mins by gamma-ray counting analysis; conditions: in vivo, 1.5 h
[15] = system: Lung; assay: Biodistribution in lung of ddY mouse at 5.6 +/- 2.1 MBq, iv measured per gram of tissue at 90 mins by gamma-ray counting analysis; conditions: in vivo, 1.5 h
[16] = system: Mus musculus; assay: Biodistribution in large intestine wall of ddY mouse at 5.6 +/- 2.1 MBq, iv measured per gram of tissue at 60 mins by gamma-ray counting analysis; conditions: in vivo, 1 h
[17] = system: Mus musculus; assay: Biodistribution in small intestine wall of ddY mouse at 5.6 +/- 2.1 MBq, iv measured per gram of tissue at 60 mins by gamma-ray counting analysis; conditions: in vivo, 1 h
[18] = system: Lung; assay: Biodistribution in lung of ddY mouse at 5.6 +/- 2.1 MBq, iv measured per gram of tissue at 60 mins by gamma-ray counting analysis; conditions: in vivo, 1 h
[19] = system: Kidney; assay: Biodistribution in kidney of ddY mouse at 5.6 +/- 2.1 MBq, iv measured per gram of tissue at 60 mins by gamma-ray counting analysis; conditions: in vivo, 1 h
[20] = system: Mus musculus; assay: Biodistribution in urinary bladder/urine of ddY mouse at 5.6 +/- 2.1 MBq, iv measured per gram of tissue at 45 mins by gamma-ray counting analysis; conditions: in vivo, 0.75 h
[21] = system: Pancreas; assay: Biodistribution in pancreas of ddY mouse at 5.6 +/- 2.1 MBq, iv measured per gram of tissue at 45 mins by gamma-ray counting analysis; conditions: in vivo, 0.75 h
[22] = system: Mus musculus; assay: Biodistribution in small intestine wall of ddY mouse at 5.6 +/- 2.1 MBq, iv measured per gram of tissue at 45 mins by gamma-ray counting analysis; conditions: in vivo, 0.75 h
[23] = system: Mus musculus; assay: Biodistribution in heart wall of ddY mouse at 5.6 +/- 2.1 MBq, iv measured per gram of tissue at 45 mins by gamma-ray counting analysis; conditions: in vivo, 0.75 h
[24] = system: Lung; assay: Biodistribution in lung of ddY mouse at 5.6 +/- 2.1 MBq, iv measured per gram of tissue at 45 mins by gamma-ray counting analysis; conditions: in vivo, 0.75 h
[25] = system: Kidney; assay: Biodistribution in kidney of ddY mouse at 5.6 +/- 2.1 MBq, iv measured per gram of tissue at 45 mins by gamma-ray counting analysis; conditions: in vivo, 0.75 h
[26] = system: Pancreas; assay: Biodistribution in pancreas of ddY mouse at 5.6 +/- 2.1 MBq, iv measured per gram of tissue at 35 mins by gamma-ray counting analysis; conditions: in vivo
[27] = system: Thyroid gland; assay: Biodistribution in thyroid of ddY mouse at 5.6 +/- 2.1 MBq, iv measured per gram of tissue at 35 mins by gamma-ray counting analysis; conditions: in vivo
[28] = system: Mus musculus; assay: Biodistribution in stomach wall of ddY mouse at 5.6 +/- 2.1 MBq, iv measured per gram of tissue at 35 mins by gamma-ray counting analysis; conditions: in vivo
[29] = system: Lung; assay: Biodistribution in lung of ddY mouse at 5.6 +/- 2.1 MBq, iv measured per gram of tissue at 35 mins by gamma-ray counting analysis; conditions: in vivo
[30] = system: Kidney; assay: Biodistribution in kidney of ddY mouse at 5.6 +/- 2.1 MBq, iv measured per gram of tissue at 35 mins by gamma-ray counting analysis; conditions: in vivo
[31] = system: Thyroid gland; assay: Biodistribution in thyroid of ddY mouse at 5.6 +/- 2.1 MBq, iv measured per gram of tissue at 30 mins by gamma-ray counting analysis; conditions: in vivo, 0.5 h
[32] = system: Mus musculus; assay: Biodistribution in large intestine wall of ddY mouse at 5.6 +/- 2.1 MBq, iv measured per gram of tissue at 30 mins by gamma-ray counting analysis; conditions: in vivo, 0.5 h
[33] = system: Mus musculus; assay: Biodistribution in small intestine wall of ddY mouse at 5.6 +/- 2.1 MBq, iv measured per gram of tissue at 15 mins by gamma-ray counting analysis; conditions: in vivo, 0.25 h
[34] = system: Mus musculus; assay: Biodistribution in stomach wall of ddY mouse at 5.6 +/- 2.1 MBq, iv measured per gram of tissue at 15 mins by gamma-ray counting analysis; conditions: in vivo, 0.25 h
[35] = system: Spleen; assay: Biodistribution in spleen of ddY mouse at 5.6 +/- 2.1 MBq, iv measured per gram of tissue at 15 mins by gamma-ray counting analysis; conditions: in vivo, 0.25 h
[36] = system: Liver; assay: Biodistribution in liver of ddY mouse at 5.6 +/- 2.1 MBq, iv measured per gram of tissue at 15 mins by gamma-ray counting analysis; conditions: in vivo, 0.25 h
[37] = system: Liver; assay: Metabolic stability in liver of mouse at 5 +/- 2.3 MBq/kg, iv measured until 30 to 60 mins by HPLC analysis in presence of MATE1 inhibitor pyrimethamine; conditions: in vivo

CN([11CH3])C(=N)NC(=N)N
Drug uptake [1]: Active
Drug uptake [2]: Active
Drug uptake [3]: 36.827 %ID
Drug uptake [4]: 23.827 %ID
Drug uptake [5]: 17.28 %ID
Drug uptake [6]: 18.728 %ID
Drug uptake [7]: 54.581 %ID
Drug uptake [8]: 28.532 %ID
Drug uptake [9]: 4.394 %ID
Drug uptake [10]: 1.033 %ID
Drug uptake [11]: 36.878 %ID
Drug uptake [12]: 4.327 %ID
Drug uptake [13]: 59.056 %ID
Drug uptake [14]: 0.339 %ID
Drug uptake [15]: 0.128 %ID
Drug uptake [16]: 0.395 %ID
Drug uptake [17]: 2.543 %ID
Drug uptake [18]: 0.136 %ID
Drug uptake [19]: 1.068 %ID
Drug uptake [20]: 78.906 %ID
Drug uptake [21]: 0.117 %ID
Drug uptake [22]: 2.128 %ID
Drug uptake [23]: 0.029 %ID
Drug uptake [24]: 0.135 %ID
Drug uptake [25]: 0.165 %ID
Drug uptake [26]: 0.196 %ID
Drug uptake [27]: 0.003 %ID
Drug uptake [28]: 0.091 %ID
Drug uptake [29]: 0.119 %ID
Drug uptake [30]: 0.274 %ID
Drug uptake [31]: 0.009 %ID
Drug uptake [32]: 0.352 %ID
Drug uptake [33]: 3.409 %ID
Drug uptake [34]: 0.347 %ID
Drug uptake [35]: 0.144 %ID
Drug uptake [36]: 3.817 %ID
Stability [37]: Stable
